Key:
Mus musculus [1] = assay: Tested for the ability to alter the spontaneous activity in mice at 10 mg/kg; type: functional
Mus musculus [2] = assay: Tested for the ability to change in rectal temperature in mice at 3 mg/kg; type: functional
Canis familiaris [3] = assay: Tested for Maximal behavioral effect(overt behavior) in dogs, activity is expressed as av score at a dose of 0.1 mg/kg; type: functional, Canis lupus familiaris
Mus musculus [4] = assay: Tested for the ability to alter the spontaneous activity in mice at 1 mg/kg; type: functional
Mus musculus [5] = assay: Tested for the ability to change in rectal temperature in mice at 0.1 mg/kg; type: functional
Mus musculus [6] = assay: Tested for the ability to change in rectal temperature in mice at 1 mg/kg; type: functional
Mus musculus [7] = assay: Tested for the ability to alter the spontaneous activity in mice at 0.3 mg/kg; type: functional
Mus musculus [8] = assay: Tested for the ability to change in rectal temperature in mice at 10 mg/kg; type: functional
Mus musculus [9] = assay: Tested for the ability to alter the spontaneous activity in mice at 3 mg/kg; type: functional
Mus musculus [10] = assay: Tested for the ability to change in rectal temperature in mice at 0.3 mg/kg; type: functional
Canis familiaris [11] = assay: Cardiovascular effect for percentage change in heart rate in anesthetized dogs after 1 mg/kg iv dose; type: functional, Canis lupus familiaris
Mus musculus [12] = assay: Tested for the ability to alter the spontaneous activity in mice at 0.1 mg/kg; type: functional
Canis familiaris [13] = assay: Tested for Maximal behavioral effect(overt behavior) in dogs, activity is expressed as av score at a dose of 0.2 mg/kg; type: functional, Canis lupus familiaris
Canis familiaris [14] = assay: Tested for Maximal behavioral effect(overt behavior) in dogs, activity is expressed as av score at a dose of 0.05 mg/kg; type: functional, Canis lupus familiaris
Canis familiaris [15] = assay: Cardiovascular effect for percentage change in blood pressure in anesthetized dogs after 1 mg/kg iv dose; type: functional, Canis lupus familiaris
Mus musculus [16] = assay: Tested for the ability to alter the spontaneous activity in mice at 30 mg/kg; type: functional
Mus musculus [17] = assay: Tested for the ability to change in rectal temperature in mice at 6 mg/kg; type: functional
Mus musculus [18] = assay: Tested for the ability to alter the spontaneous activity in mice at 6 mg/kg; type: functional
Canis familiaris [19] = assay: Tested for Maximal behavioral effect(overt behavior) in dogs, activity is expressed as av score at a dose of 0.5 mg/kg; type: functional, Canis lupus familiaris
Mus musculus [20] = assay: Tested for the ability to change in rectal temperature in mice a 3 mg/kg; type: functional
Mus musculus [21] = assay: Tested for the ability to change in rectal temperature in mice at 30 mg/kg; type: functional
Mus musculus [22] = assay: Tested for the ability to alter the spontaneous activity in mice at 7.5 mg/kg; type: functional
Mus musculus [23] = assay: Tested for the ability to change in rectal temperature in mice at 10.0 mg/kg; type: functional
Mus musculus [24] = assay: Tested for the ability to change in rectal temperature in mice at 2.5 mg/kg; type: functional
Mus musculus [25] = assay: Tested for the ability to alter the spontaneous activity in mice at 5.0 mg/kg; type: functional
Mus musculus [26] = assay: Tested for the ability to change in rectal temperature in mice at 5.0 mg/kg; type: functional
Mus musculus [27] = assay: Tested for the ability to alter the spontaneous activity in mice at 2.5 mg/kg; type: functional
Mus musculus [28] = assay: Tested for the ability to change in rectal temperature in mice at 7.5 mg/kg; type: functional
Canis familiaris [29] = assay: Tested for Maximal behavioral effect(overt behavior) in dogs, activity is expressed as av score at a dose of 0.4 mg/kg; type: functional, Canis lupus familiaris
Mus musculus [30] = assay: Tested for the ability to alter the spontaneous activity in mice at 10.0 mg/kg; type: functional

CCC(O)CCc1cc(O)c2c(c1)OC(C)(C)[C@@H]1CCC(C)=CC21 (stereo partly drawn)
Activity (Mus musculus [1]): 7 | Change in temparature (Mus musculus [2]): -4.1 °C | Average score (Canis familiaris [3]): 2 | Activity (Mus musculus [4]): 27 | Change in temparature (Mus musculus [5]): -0.4 °C | Change in temparature (Mus musculus [6]): -2.8 °C | Activity (Mus musculus [7]): 86 | Change in temparature (Mus musculus [8]): -7.6 °C | Activity (Mus musculus [9]): 13 | Change in temparature (Mus musculus [10]): -1.3 °C | Change (Canis familiaris [11]): -12% | Activity (Mus musculus [12]): 108 | Average score (Canis familiaris [13]): 4.5 | Average score (Canis familiaris [14]): 1 | Average score (Canis familiaris [15]): -45%

CCC(O)CCc1cc(O)c2c(c1)OC(C)(C)[C@@H]1CCC(CO)=CC21 (stereo partly drawn)
Activity (Mus musculus [1]): 33 | Change in temparature (Mus musculus [8]): -3 °C | Activity (Mus musculus [16]): 26 | Change in temparature (Mus musculus [17]): -0.2 °C | Activity (Mus musculus [9]): 81 | Activity (Mus musculus [18]): 59 | Average score (Canis familiaris [19]): 3 | Change in temparature (Mus musculus [20]): -0.4 °C | Change in temparature (Mus musculus [21]): -4.3 °C | Average score (Canis familiaris [13]): 1

CCCCCc1cc(O)c2c(c1)OC(C)(C)[C@@H]1CCC(C)=C[C@@H]21 [DRONABINOL]
Activity (Mus musculus [22]): 17 | Change in temparature (Mus musculus [23]): -4.2 °C | Average score (Canis familiaris [3]): 0 | Change in temparature (Mus musculus [24]): -2.6 °C | Activity (Mus musculus [25]): 20 | Change in temparature (Mus musculus [26]): -3.6 °C | Activity (Mus musculus [27]): 59 | Change in temparature (Mus musculus [28]): -3.8 °C | Average score (Canis familiaris [29]): 4 | Activity (Mus musculus [30]): 6 | Change (Canis familiaris [11]): -39% | Average score (Canis familiaris [13]): 3 | Change (Canis familiaris [15]): -46%
